How the values were obtained:
[1] = refractive index (Na D-line) (dimensionless); xn = mol fraction of the nth substance listed; conditions: 101 kPa, Liquid, Standard Abbe refractometry
[2] = xn = mol fraction of the nth substance listed; conditions: 101 kPa, Liquid, Vibrating tube method

CCCC(=O)[O-].C[NH2+]CCO [N-methyl-2-hydroxyethylammonium butanoate] + CCOC(C)=O
Conditions	mass density, [2] [kg/m3]	refractive index, [1]
303.15 K, x2 = 0	1035.87	1.4534
303.15 K, x2 = 0.0454	–	1.4533
303.15 K, x2 = 0.0956	–	1.4511
303.15 K, x2 = 0.199	1013.58	1.4472
303.15 K, x2 = 0.2901	1004.61	1.4411
303.15 K, x2 = 0.412	–	1.4324
303.15 K, x2 = 0.507	981.19	1.4246
303.15 K, x2 = 0.6018	–	1.4161
303.15 K, x2 = 0.7039	950.35	1.4055
303.15 K, x2 = 0.8031	931.53	1.3949
303.15 K, x2 = 0.8998	911.57	1.3812
303.15 K, x2 = 0.9497	–	1.3746
303.16 K, x2 = 0.0454	1026.24	–
303.16 K, x2 = 0.0956	1022.32	–
303.16 K, x2 = 0.412	992.58	–
303.16 K, x2 = 0.6018	967.06	–
303.16 K, x2 = 0.9497	900.62	–
308.15 K, x2 = 0	1032.53	–
308.15 K, x2 = 0.0956	1018.71	–
308.15 K, x2 = 0.199	1009.85	–
308.15 K, x2 = 0.2901	1000.57	–
308.15 K, x2 = 0.412	987.98	–
308.15 K, x2 = 0.507	976.57	–
308.15 K, x2 = 0.6018	962.31	–
308.15 K, x2 = 0.7039	945.26	–
308.15 K, x2 = 0.8031	926.08	–
308.15 K, x2 = 0.8998	905.73	–
308.16 K, x2 = 0.0454	1022.67	–
308.16 K, x2 = 0.9497	894.58	–
313.15 K, x2 = 0.0454	1019.09	–
313.15 K, x2 = 0.0956	1015.1	–
313.15 K, x2 = 0.6018	957.53	–
313.16 K, x2 = 0	1029.14	–
313.16 K, x2 = 0.199	1006.08	–
313.16 K, x2 = 0.2901	996.56	–
313.16 K, x2 = 0.412	983.25	–
313.16 K, x2 = 0.507	971.82	–
313.16 K, x2 = 0.7039	940.11	–
313.16 K, x2 = 0.8031	920.58	–
313.16 K, x2 = 0.8998	899.84	–
313.16 K, x2 = 0.9497	888.5	–
318.15 K, x2 = 0.9497	882.16	–
318.16 K, x2 = 0	1025.72	–
318.16 K, x2 = 0.0454	1015.66	–
318.16 K, x2 = 0.0956	1011.66	–
318.16 K, x2 = 0.199	1002.32	–
318.16 K, x2 = 0.2901	992.61	–
318.16 K, x2 = 0.412	978.49	–
318.16 K, x2 = 0.507	967.05	–
318.16 K, x2 = 0.6018	952.68	–
318.16 K, x2 = 0.7039	934.92	–
318.16 K, x2 = 0.8031	915.03	–
318.16 K, x2 = 0.8998	893.91	–
323.14 K, x2 = 0.0454	1012.2	–
323.14 K, x2 = 0.0956	1007.98	–
323.14 K, x2 = 0.199	998.56	–
323.14 K, x2 = 0.2901	988.83	–
323.14 K, x2 = 0.412	974.67	–
323.14 K, x2 = 0.507	962.75	–
323.14 K, x2 = 0.7039	929.55	–
323.14 K, x2 = 0.8031	909.33	–
323.14 K, x2 = 0.8998	887.92	–
323.15 K, x2 = 0.6018	947.5	–
323.15 K, x2 = 0.9497	876.1	–
323.16 K, x2 = 0	1022.26	–

CCCC(=O)[O-].C[NH2+]CCO [N-methyl-2-hydroxyethylammonium butanoate] + COC(C)=O
Conditions	mass density, [2] [kg/m3]	refractive index, [1]
288.14 K, x2 = 0.7912	977.2	–
288.15 K, x2 = 0	1046	1.4579
288.15 K, x2 = 0.0646	1040	1.4558
288.15 K, x2 = 0.1097	1036.1	1.4556
288.15 K, x2 = 0.2074	1027.3	1.4509
288.15 K, x2 = 0.3079	1021.07	1.4449
288.15 K, x2 = 0.3983	1015.6	1.4399
288.15 K, x2 = 0.4973	1011.5	1.4327
288.15 K, x2 = 0.5928	1003	1.4232
288.15 K, x2 = 0.6898	991.4	1.413
288.15 K, x2 = 0.7912	–	1.3996
288.15 K, x2 = 0.8979	–	1.3833
288.15 K, x2 = 0.898	959.7	–
288.15 K, x2 = 0.9483	–	1.3746
288.16 K, x2 = 0.9483	950.1	–
293.14 K, x2 = 0.0646	1036.4	–
293.14 K, x2 = 0.1097	1032.5	–
293.14 K, x2 = 0.9483	943.8	–
293.15 K, x2 = 0	1042.6	–
293.15 K, x2 = 0.2074	1024	–
293.15 K, x2 = 0.3079	1017.3	–
293.15 K, x2 = 0.3983	1011.4	–
293.15 K, x2 = 0.4973	1007.2	–
293.15 K, x2 = 0.5928	998.4	–
293.15 K, x2 = 0.6898	986.5	–
293.15 K, x2 = 0.7912	971.7	–
293.15 K, x2 = 0.898	953.8	–
298.14 K, x2 = 0.0646	1032.8	–
298.14 K, x2 = 0.3983	1007.1	–
298.14 K, x2 = 0.6898	981.5	–
298.14 K, x2 = 0.7912	966.2	–
298.14 K, x2 = 0.898	947.7	–
298.14 K, x2 = 0.9483	937.5	–
298.15 K, x2 = 0	1039.2	–
298.15 K, x2 = 0.1097	1028.9	–
298.15 K, x2 = 0.2074	1019.6	–
298.15 K, x2 = 0.3079	1013.2	–
298.15 K, x2 = 0.4973	1002.9	–
298.15 K, x2 = 0.5928	993.7	–
303.14 K, x2 = 0.0646	1029.1	–
303.14 K, x2 = 0.2074	1015.8	–
303.14 K, x2 = 0.3983	1002.8	–
303.14 K, x2 = 0.4973	998.4	–
303.14 K, x2 = 0.5928	989.1	–
303.14 K, x2 = 0.6898	976.4	–
303.14 K, x2 = 0.7912	960.7	–
303.14 K, x2 = 0.898	941.6	–
303.14 K, x2 = 0.9483	931.1	–
303.15 K, x2 = 0	1035.9	–
303.15 K, x2 = 0.1097	1025.2	–
303.15 K, x2 = 0.3079	1009	–
308.14 K, x2 = 0.0646	1025.6	–
308.14 K, x2 = 0.2074	1013.3	–
308.14 K, x2 = 0.3079	1004.8	–
308.14 K, x2 = 0.3983	998.5	–
308.14 K, x2 = 0.4973	992.6	–
308.14 K, x2 = 0.6898	971.3	–
308.14 K, x2 = 0.7912	955.1	–
308.14 K, x2 = 0.898	935.5	–
308.14 K, x2 = 0.9483	924.6	–
308.15 K, x2 = 0	1032.5	–
308.15 K, x2 = 0.1097	1021.6	–
308.15 K, x2 = 0.5928	984.3	–
313.14 K, x2 = 0.0646	1022	–
313.14 K, x2 = 0.1097	1018	–
313.14 K, x2 = 0.2074	1009.2	–
313.14 K, x2 = 0.3079	1000.6	–
313.14 K, x2 = 0.3983	994.2	–
313.14 K, x2 = 0.4973	988.8	–
313.14 K, x2 = 0.6898	966.1	–
313.14 K, x2 = 0.7912	949.5	–
313.14 K, x2 = 0.898	929.3	–
313.14 K, x2 = 0.9483	918.1	–
313.15 K, x2 = 0.5928	979.6	–
313.16 K, x2 = 0	1029.1	–
318.14 K, x2 = 0.1097	1014.3	–
318.14 K, x2 = 0.3079	996.3	–
318.14 K, x2 = 0.5928	974.8	–
318.14 K, x2 = 0.898	923	–
318.14 K, x2 = 0.9483	911.5	–
318.15 K, x2 = 0.0646	1018.3	–
318.15 K, x2 = 0.2074	1006.1	–
318.15 K, x2 = 0.3983	989.8	–
318.15 K, x2 = 0.4973	983.8	–
318.15 K, x2 = 0.6898	961	–
318.15 K, x2 = 0.7912	943.8	–
318.16 K, x2 = 0	1025.7	–
323.14 K, x2 = 0.1097	1010.6	–
323.14 K, x2 = 0.5928	970	–
323.15 K, x2 = 0.0646	1014.6	–
323.15 K, x2 = 0.2074	1001.4	–
323.15 K, x2 = 0.3079	992.33	–
323.15 K, x2 = 0.3983	985.3	–
323.15 K, x2 = 0.4973	979.2	–
323.15 K, x2 = 0.6898	955.7	–
323.15 K, x2 = 0.7912	938.1	–
323.15 K, x2 = 0.898	916.7	–
323.15 K, x2 = 0.9483	904.9	–
323.16 K, x2 = 0	1022.3	–

Source: the NIST ThermoML archive (doi:10.1016/j.jct.2013.02.022)
